The record followed here is EPA's ToxValDB 9.5 (doi:10.2903/j.efsa.2013.3298).

One data set concerns Apis mellifera. The note with it: acute; duration: 48 hours; oral; unspecified; mortality.
The next data set has as its system Canidae. Conditions: oral, M/F, Dog Other, hematological.
The test system of a further data set is Colinus virginianus. Conditions: for LD50: acute, oral, mortality.
The subject of another data set is Cyprinodon variegatus. The note with it: acute; duration: 96 hours; mortality.
The next data set deals with Daphnia magna. The note with it: chronic/long-term; duration: 21 days; reproduction.
The test system of another data set is Pimephales promelas. Conditions: chronic/long-term; duration: 35 days; body weight.
In another data set the test system is Aphidius rhopalosiphi. Description: LR50; higher = less toxic. Conditions: acute; duration: 14 days; mortality.
The test system of the next data set is Typhlodromus pyri. The data set can be described thus: LR50; higher = less toxic. Conditions: chronic/long-term; duration: 14 days; mortality.

The structures appear in SMILES notation. In brackets after ≈: the same amount, converted by molar mass.

Consider `Cc1cc(C(F)(C(F)(F)F)C(F)(F)F)ccc1NC(=O)c1cccc(I)c1C(=O)NC(C)(C)CS(C)(=O)=O` [Flubendiamide], for which the NOEL in the data set on Anas platyrhynchos (reproductive, reproduction) is 26 mg/kg-day; with Colinus virginianus (reproduction developmental, reproduction) it was 10.2 mg/kg-day. The LD50 was more than 1020 mg/kg-day with Anas platyrhynchos (short-term, oral, feed, mortality); more than 200 µg/piece with Apis mellifera; more than 1080 mg/kg-day in the data set on Colinus virginianus (diet); more than 2000 mg/kg in the data set on Colinus virginianus; more than 2000 mg/kg in the data set on Rattus norvegicus (acute, oral, M/F, mortality). Besides, the LC50 with Bibionidae (acute, duration: 48 hours, mortality) is 1.88 µg/mL (≈ 2.75 µM); in the data set with Cyprinodon variegatus it was more than 0.0298 µg/mL; in the data set on Tagia sp. (acute, duration: 14 days, mortality), more than 1000 mg/kg. In addition, the NOEC in the data set with Bibionidae (chronic/long-term, duration: 28 days, development) amounted to 35 µg/L; with Daphnia magna, 0.4 µg/L; with Pimephales promelas it was 60.2 µg/L; in the data set with Tagia sp. (chronic/long-term, duration: 56 days, reproduction), 1000 mg/kg. Moreover, the NOAEL was 2.21 mg/kg-day with Canidae (chronic, duration: 1 years); 2.6 mg/kg-day in the data set with Canidae (subchronic, duration: 90 days); 1.7 mg/kg-day in the data set on Rattus norvegicus (chronic, M, hematological); 10 mg/kg-day in the data set with Rattus norvegicus (developmental, development); 3.68 mg/kg-day with Rattus norvegicus (reproduction developmental, F, reproduction). In addition, the LR50 in the data set with Aphidius rhopalosiphi and with Typhlodromus pyri was more than 675 g/ha each time.
